In publication PMC11294694, “Dissecting the abilities of murine Siglecs to interact with gangliosides [drawing 1]” (The Journal of Biological Chemistry, 2024):

What was measured:
hSiglec-1 = target: T1, hSiglec-1 (Homo sapiens, UniProt Q9BZZ2); experiment: direct ESI native mass spectrometry titration; type: binding
T1 construct: gene SIGLEC1; monomeric Siglec-1 fragment from CHO Lec1 cells

mSiglec-1 [1] = target: T2, mSiglec-1 (Mus musculus, UniProt Q62230); experiment: direct ESI native mass spectrometry titration; type: binding
T2 construct: gene Siglec1; monomeric Siglec-1 fragment from CHO Lec1 cells
T2 sequence (Q62230 20-136 limits assumed): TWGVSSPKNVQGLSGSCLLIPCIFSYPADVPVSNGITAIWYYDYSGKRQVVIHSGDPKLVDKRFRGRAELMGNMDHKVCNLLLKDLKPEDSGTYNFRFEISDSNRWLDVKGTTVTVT

mSiglec-1 [2] = target: T2, mSiglec-1; experiment: direct ESI native mass spectrometry titration (no binding in liposome bead assay or ELISA)

T1 sequence (Q9BZZ2 20-136 limits assumed): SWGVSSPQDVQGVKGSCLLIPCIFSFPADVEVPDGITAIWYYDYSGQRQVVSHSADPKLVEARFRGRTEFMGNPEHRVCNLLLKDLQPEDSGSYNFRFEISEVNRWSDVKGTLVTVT

Substance | Kd (hSiglec-1) | Kd (mSiglec-1 [1]) | Kd (mSiglec-1 [2])
GM1b oligosaccharide | 0.89 mM | 1.2 mM | –
GM1a oligosaccharide | 1.5 mM | – | 2 mM
